Measurements from US11203608B2, “Platinum-containing compounds, and related compositions and uses thereof” (Massachusetts Institute of Technology, priority 2019, dated 2021).

Key:
[1] = test system: A2780 human ovarian cancer cell line
Method: ICP-MS was performed on an Agilent 7900 ICP-MS in helium mode.
The cells in a six-well plate were treated with oxaliplatin, doxaliplatin, or a mixture of doxorubicin and oxaliplatin at indicated concentration in 2 mL of Advanced DMEM/F12 (ADMEM/F12), supplemented with 5% FBS, 2 mM GlutaMAX, and 1% Penicillin-Streptomycin. After three hours, the media were removed. The cells were washed with xl PBS buffer containing EDTA (100 μM, 4 mL×2). To each well, MilliQ water (1.0 mL) was added. After 15 min, the cells were suspended. A portion of the resulting cell lysate (900 μL) was transferred to an Eppendorf tube. The samples were frozen in liquid nitrogen and thawed at room temperature. This procedure was repeated for three times. The insoluble lysate was pelleted (10000 rpm for 10 min). […] Pierce 660 nm Protein solution (200 μL) was added to each well. An aliquot of the lysate (14.2 μL) was added to each well. The plate was shaken and read on a plate reader. The remaining samples were frozen at liquid nitrogen temperature and lyophilized. The dried material was digested with Aristar® ultrapure concentrated nitric acid (70%) at 70° C. for one hour. An aliquot of this solution (142 μL) was mixed with molecular biology grade water (2000 μL) and a terbium internal standard (40 μL, 100 ppb). The platinum content was then determined using an Agilent 7900 ICP-MS in helium mode. The concentration of platinum in the cells was normalized to measured protein concentration described above.

[2] = test system: OVCAR8 human ovarian cancer cell line; assay: Cell growth, resazurin assay, OVCAR8; format: cell-based; details: 72-h exposure
Method: Cells were cultured in 10 mL of Advanced DMEM/F12 (ADMEM/F12), supplemented with 5% FBS, 2 mM GlutaMAX, and 1% Penicillin-Streptomycin in 10 cm tissue culture plates. Cells were then plated into 96-well plates with about 2.5×10^3 cells per well. Cells were plated with 200 μL per well of ADMEM/F12 supplemented with 5% FBS, 2 mM GlutaMAX, and 1% Penicillin-Streptomycin. Cells were treated with dose responses of doxorubicin, oxaliplatin, or doxaliplatin upon plating. The cells were then cultured for 72 hours following drug treatment, and cell growth was measured by resazurin assay.

[3] = Solubility and stability in organic solvents (observed during NMR); format: physicochemical
Method: To a stirred solution of K2PtCl4 (41.5 mg, 0.100 mmol) in water (30 mL), a solution of 9 bis(trifluoroacetic acid) salt (77.0 mg, 0.100 mmol) in water (9 mL) was added in one portion. Red precipitate formed immediately. The reaction was stirred at room temperature for 24 h. To the same solution was added AgNO3 aq. solution (0.10 M, 4.0 mL). The reaction was stirred at room temperature for 24 h. To this mixture was then added K2C2O4 aq. solution (0.20 M, 0.50 mL). The reaction was stirred at room temperature for 24 h. The reaction mixture was lyophilized together with a small amount of C18-reversed phase silica gel. […] The multiplicity of some ^1H NMR signals were not determined due to overlap. […] Due to the relatively low concentration of 12 in […], only part of the ^13C NMR signals were detected through ^13C-^1H correlation experiments. The ^13C NMR signals of Conformer A detected by ^1H-^13C HSQC and ^1H-^13C HMBC spectroscopy: ^13C{^1H} NMR (101 MHz, DMSO-d6) δ 16.98, 31.68, 34.80, 37.89, 55.85, 56.35, 64.07, 65.27, 66.70, 68.15, 98.84, 118.56, 118.86, 134.84, 159.78. The ^13C NMR signals of Conformer B detected by ^1H-^13C HSQC and ^1H-^13C HMBC spectroscopy: ^13C{^1H} NMR (101 MHz, DMSO-d6) δ 17.24, 32.01, 36.73, 37.27, 56.13, 56.31, 63.56, 64.07, 68.53, 69.85, 99.05, 118.68, 118.84, 135.99, 160.62. ^195Pt NMR (86 MHz, DMSO-d6) δ−1989 (br). […]

## COc1cccc2c1C(=O)c1c(O)c3c(c(O)c1C2=O)CC(O)(C(=O)CO)CC3OC1CC(N)C(N)C(C)O1.O=C1[O][Pt][O]C1=O (centres unmarked) [DoxPt, Doxaliplatin]
[1]
  Platinum concentration in treated cells relative to oxaliplatin-treated cells: approximately ten times higher than in oxaliplatin-treated cells
[2]
  IC50: 140 ± 10 nM
  IC80: 370 ± 20 nM
[3]; DMF
  Solubility in DMF: low solubility
[3]; DMSO-d6
  Solubility in DMSO-d6: relatively high solubility
